How the values were obtained:
TMD-8 cells = assay: Anti-proliferation Assay (MTS), TMD-8 cells; type: cell-based; conditions: Homo sapiens, TMD8, treated for 72 hours, MTS cell survival
Method: (§1) Cell survival is determined by a MTS assay. Briefly, cells (i.e., TMD-8 cells or Rec-1 cells) are plated in a 96-well plate, cultured in complete growth medium, and then treated with various drugs and drug combinations. MTS/PMS is added and incubated, followed by assessment of cell viability using the microplate reader. Data is normalized to untreated controls and analyzed with Microsoft Excel.
(§2) Cell survival was determined by the MTS assay. Briefly, cells (i.e., TMD-8 cells or Rec-1 cells) were plated in a 96-well plate at 2,000-10,000 cells per well, cultured for 24 hours in complete growth medium, and then treated with various drugs and drug combinations for 72 hours. MTS/PMS was added and incubated for 4 hour, followed by assessment of cell viability using the microplate reader (absorbance at 490 nm). Data were normalized to untreated controls and analyzed with Microsoft Excel.

Rec-1 cells = assay: Anti-proliferation Assay (MTS), Rec-1 cells; type: cell-based; conditions: Homo sapiens, Rec1, treated for 72 hours, MTS cell survival
Method: as §1, §2

**Q.** With `O=C(c1ccc(Oc2ccccc2)cc1Cl)c1c[nH]c2ncnc(N[C@@H]3CC[C@@H](CO)OC3)c12` [Compound (I), (2-chloro-4-phenoxyphenyl)(4-(((3R,6S)-6-(hydroxymethyl)tetrahydro-2H-pyran-3-yl)amino)-7H-pyrrolo[2,3-d]pyrimidin-5-yl)methanone] as the compound, how does the IC50 (TMD-8 cells) read?
**A.** 130 ± 60 nM

**Q.** And the IC50 (Rec-1 cells)?
**A.** 180 ± 70 nM
